Measurements published in article PMC11470957, “Principles of paralog-specific targeted protein degradation engaging the C-degron E3 KLHDC2” (Nature Communications, 2024).
Where two headings read alike, the source gives them in different places.

Columns and labels:
[1] = target: BRD2 (Homo sapiens, UniProt P25440); assay: Western blot of BRD2 levels after cellular dosing
[2] = target: BRD3 (Homo sapiens, UniProt Q15059); assay: Western blot of BRD3 levels after cellular dosing
[3] = U2OS, read-out: BRD2 level, Western blot quantification (DMSO = 100), Fig S6d, U2OS KO/rescue Dose Response
[4] = read-out: BRD2 level, Western blot quantification (DMSO = 100), Fig S6e, PC3 KO/rescue Dose Response

Chain of BRD3 (Q15059 whole entry): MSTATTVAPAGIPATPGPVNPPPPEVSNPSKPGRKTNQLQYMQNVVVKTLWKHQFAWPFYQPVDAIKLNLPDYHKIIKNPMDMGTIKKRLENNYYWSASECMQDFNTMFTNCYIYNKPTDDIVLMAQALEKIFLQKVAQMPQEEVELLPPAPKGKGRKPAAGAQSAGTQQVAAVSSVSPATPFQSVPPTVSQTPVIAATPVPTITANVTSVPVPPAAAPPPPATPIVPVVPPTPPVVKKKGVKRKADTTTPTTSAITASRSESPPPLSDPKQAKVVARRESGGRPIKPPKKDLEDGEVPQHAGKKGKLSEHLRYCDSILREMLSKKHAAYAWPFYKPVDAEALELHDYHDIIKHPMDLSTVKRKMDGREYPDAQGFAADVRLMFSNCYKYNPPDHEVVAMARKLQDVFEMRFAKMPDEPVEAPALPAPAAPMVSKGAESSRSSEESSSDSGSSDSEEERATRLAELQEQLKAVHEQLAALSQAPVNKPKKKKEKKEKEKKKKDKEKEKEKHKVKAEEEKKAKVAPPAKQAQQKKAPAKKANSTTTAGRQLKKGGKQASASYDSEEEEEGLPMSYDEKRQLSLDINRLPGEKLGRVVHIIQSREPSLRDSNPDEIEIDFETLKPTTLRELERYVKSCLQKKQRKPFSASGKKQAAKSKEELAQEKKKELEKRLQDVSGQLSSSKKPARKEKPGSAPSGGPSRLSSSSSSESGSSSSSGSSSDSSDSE
Chain of BRD2 (P25440 whole entry): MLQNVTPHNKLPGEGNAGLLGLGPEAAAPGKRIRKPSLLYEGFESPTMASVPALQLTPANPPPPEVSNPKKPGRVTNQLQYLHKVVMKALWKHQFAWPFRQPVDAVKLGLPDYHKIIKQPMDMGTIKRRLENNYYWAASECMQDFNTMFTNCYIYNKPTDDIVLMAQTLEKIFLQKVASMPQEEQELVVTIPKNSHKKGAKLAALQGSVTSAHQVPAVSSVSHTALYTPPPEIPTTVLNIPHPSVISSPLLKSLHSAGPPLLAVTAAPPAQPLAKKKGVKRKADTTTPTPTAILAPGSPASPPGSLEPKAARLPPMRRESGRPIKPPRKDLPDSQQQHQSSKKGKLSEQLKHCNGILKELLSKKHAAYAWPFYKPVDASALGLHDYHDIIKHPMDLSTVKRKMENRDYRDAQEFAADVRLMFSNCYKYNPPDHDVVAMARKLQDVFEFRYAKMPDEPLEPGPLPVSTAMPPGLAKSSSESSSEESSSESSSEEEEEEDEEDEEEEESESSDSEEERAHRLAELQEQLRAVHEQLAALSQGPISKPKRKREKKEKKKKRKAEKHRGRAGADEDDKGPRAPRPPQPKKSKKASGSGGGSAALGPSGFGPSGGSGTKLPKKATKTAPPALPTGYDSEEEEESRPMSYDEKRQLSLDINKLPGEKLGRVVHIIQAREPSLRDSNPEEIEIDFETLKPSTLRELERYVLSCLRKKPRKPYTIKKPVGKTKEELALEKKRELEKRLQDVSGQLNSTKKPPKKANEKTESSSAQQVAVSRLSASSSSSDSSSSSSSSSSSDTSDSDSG

COC(=O)CNC(=O)Cc1csc(-c2ccc3cccc(OCCN4CCN(C(=O)C[C@@H]5N=C(c6ccc(Cl)cc6)c6c(sc(C)c6C)-n6c(C)nnc65)CC4)c3c2)n1 [SJ46420]
remaining activity at 5 µM ([1]; SK-BR-3, 4 h, read-out: BRD2 level relative to DMSO (100%), SKBR3, 5µM, 4hr, Fig S6j): 85 ± 7.3% | remaining activity at 1 µM ([1]; SK-BR-3, 4 h, read-out: BRD2 level, Western blot quantification (DMSO = 100), Fig S6g, SKBR3 Time course, 1 uM, 4hr): 79.4% | remaining activity at 5 µM ([1]; SK-BR-3, 4 h, read-out: BRD2 level, Western blot quantification (DMSO = 100), Fig S6g, SKBR3 Time course, 5 uM, 4hr): 79.5% | remaining activity at 1 µM ([1]; SK-BR-3, 8 h, read-out: BRD2 level relative to DMSO (100%), SKBR3, 1µM, 8hr, Fig S6g): 81 ± 7.6% | remaining activity at 5 µM ([1]; SK-BR-3, 8 h, read-out: BRD2 level relative to DMSO (100%), SKBR3, 5µM, 8hr, Fig S6g): 90 ± 9.8% | remaining activity at 1 µM ([1]; SK-BR-3, 8 h, read-out: BRD2 level, Western blot quantification (DMSO = 100), Fig S6g, SKBR3 Time course, 1 uM, 8hr): 76.3% | remaining activity at 5 µM ([1]; SK-BR-3, 8 h, read-out: BRD2 level, Western blot quantification (DMSO = 100), Fig S6g, SKBR3 Time course, 5 uM, 8hr): 97.9% | remaining activity at 5 µM ([1]; SK-BR-3, read-out: BRD2 level, Western blot quantification (DMSO = 100), Fig S6i, SKBR3, 5uM): 90.6% | BRD2 Dmax ([1]; U2OS KO/Rescue, 24 h dose): ~ 100% | remaining activity at 5 µM ([1]; U2OS, 2 h, read-out: BRD2 level relative to DMSO (100%), U2OS, 5µM, 2hr, Fig S6h): 102 ± 6.9% | remaining activity at 5 µM ([1]; U2OS, 2 h, read-out: BRD2 level, Western blot quantification (DMSO = 100), Fig S6h, U2OS Time course, 5uM, 2hr): 108% | remaining activity at 5 µM ([1]; U2OS, 4 h, read-out: BRD2 level relative to DMSO (100%), U2OS, 5µM, 4hr, Fig S6h): 104 ± 6.4% | remaining activity at 5 µM ([1]; U2OS, 4 h, read-out: BRD2 level, Western blot quantification (DMSO = 100), Fig S6h, U2OS Time course, 5uM, 4hr): 109% | remaining activity at 5 µM ([1]; U2OS, 8 h, read-out: BRD2 level relative to DMSO (100%), U2OS, 5µM, 8hr, Fig S6i): 120 ± 3.4% | remaining activity at 5 µM ([1]; U2OS, 8 h, read-out: BRD2 level relative to DMSO (100%), U2OS, 5µM, 8hr, Fig S6h): 106 ± 8.4% | remaining activity at 5 µM ([1]; U2OS, 8 h, read-out: BRD2 level, Western blot quantification (DMSO = 100), Fig S6h, U2OS Time course, 5uM, 8hr): 112% | remaining activity at 5 µM ([1]; U2OS, 24 h, read-out: BRD2 level relative to DMSO (100%), U2OS DC2KO (KLHDC2 knockout), 5µM, 24 h, Fig 6b): 77 ± 2% | remaining activity at 0.16 µM ([1]; U2OS, 24 h, read-out: BRD2 level relative to DMSO (100%), U2OS KO/Rescue, 0.16µM, 24 h, Fig S6d): 94 ± 6.9% | remaining activity at 0.31 µM ([1]; U2OS, 24 h, read-out: BRD2 level relative to DMSO (100%), U2OS KO/Rescue, 0.31µM, 24 h, Fig S6d): 77 ± 6.6% | remaining activity at 0.63 µM ([1]; U2OS, 24 h, read-out: BRD2 level relative to DMSO (100%), U2OS KO/Rescue, 0.63µM, 24 h, Fig S6d): 63 ± 3.8% | remaining activity at 1 µM ([1]; U2OS, 24 h, read-out: BRD2 level relative to DMSO (100%), U2OS KO/Rescue, 1µM + co-dosing 1µM MLN4924, 24 h, Fig 6d): 350 ± 120% | remaining activity at 1 µM ([1]; U2OS, 24 h, read-out: BRD2 level relative to DMSO (100%), U2OS KO/Rescue, 1µM, 24 h, Fig 6c): 88 ± 8.4% | remaining activity at 1 µM ([1]; U2OS, 24 h, read-out: BRD2 level relative to DMSO (100%), U2OS KO/Rescue, 1µM, 24 h, Fig 6d): 68 ± 17% | remaining activity at 1.3 µM ([1]; U2OS, 24 h, read-out: BRD2 level relative to DMSO (100%), U2OS KO/Rescue, 1.3µM, 24 h, Fig S6d): 54 ± 6.7% | remaining activity at 2.5 µM ([1]; U2OS, 24 h, read-out: BRD2 level relative to DMSO (100%), U2OS KO/Rescue, 2.5µM, 24 h, Fig S6d): 37 ± 9.7% | remaining activity at 5 µM ([1]; U2OS, 24 h, read-out: BRD2 level relative to DMSO (100%), U2OS KO/Rescue, 5µM, 24 h, Fig S6d): 12 ± 2.2% | remaining activity at 5 µM ([1]; U2OS, 24 h, read-out: BRD2 level relative to DMSO (100%), U2OS, 5µM, 24 h, Fig 6b): 87 ± 5% | remaining activity at 5 µM ([1]; U2OS, 24 h, read-out: BRD2 level relative to DMSO (100%), U2OS, 5µM, 24hr, Fig S6h): 77 ± 4.3% | remaining activity at 5 µM ([1]; U2OS, 24 h, read-out: BRD2 level, Western blot quantification (DMSO = 100), Fig S6h, U2OS Time course, 5uM, 24hr): 79.8% | remaining activity at 1.59176 µM ([1]; U2OS, read-out: BRD2 (DMSO = 100), U2OS KO/Rescue cells, Log SJ46420 (uM) 1.59176, Rep1, Rep2): 102% | remaining activity at 1.89279 µM ([1]; U2OS, read-out: BRD2 (DMSO = 100), U2OS KO/Rescue cells, Log SJ46420 (uM) 1.89279, Rep1, Rep2): 99% | remaining activity at 2.19382 µM ([1]; U2OS, read-out: BRD2 (DMSO = 100), U2OS KO/Rescue cells, Log SJ46420 (uM) 2.19382, Rep1, Rep2): 82.2% | remaining activity at 2.49485 µM ([1]; U2OS, read-out: BRD2 (DMSO = 100), U2OS KO/Rescue cells, Log SJ46420 (uM) 2.49485, Rep1, Rep2): 66.6% | remaining activity at 2.79588 µM ([1]; U2OS, read-out: BRD2 (DMSO = 100), U2OS KO/Rescue cells, Log SJ46420 (uM) 2.79588, Rep1, Rep2): 49.5% | remaining activity at 3.09691 µM ([1]; U2OS, read-out: BRD2 (DMSO = 100), U2OS KO/Rescue cells, Log SJ46420 (uM) 3.09691, Rep1, Rep2): 30.5% | remaining activity at 3.39794 µM ([1]; U2OS, read-out: BRD2 (DMSO = 100), U2OS KO/Rescue cells, Log SJ46420 (uM) 3.39794, Rep1, Rep2): 13.8% | remaining activity at 3.69897 µM ([1]; U2OS, read-out: BRD2 (DMSO = 100), U2OS KO/Rescue cells, Log SJ46420 (uM) 3.69897, Rep1, Rep2): 1.16% | Dmax ([1]; U2OS, read-out: BRD2 Dmax, U2OS KO/Rescue, 24 h dose): 99.3% | remaining activity at 5 µM ([1]; U2OS, read-out: BRD2 level, Western blot quantification (DMSO = 100), Fig 6b, U2OS, 5 uM): 90.7% | remaining activity at 5 µM ([1]; U2OS, read-out: BRD2 level, Western blot quantification (DMSO = 100), Fig S6i, U2OS, 5uM): 118% | remaining activity at 0.156 µM [1, 3]: 83.3% | remaining activity at 0.313 µM [1, 3]: 100% | remaining activity at 0.625 µM [1, 3]: 81.2% | remaining activity at 1.25 µM [1, 3]: 85.7% | remaining activity at 2.5 µM ([1]; U2OS, read-out: BRD2 level, Western blot quantification (DMSO = 100), Fig S6d, U2OS KO/rescue Dose Response, 2.5 uM): 86.6% | remaining activity at 5 µM ([1]; U2OS, read-out: BRD2 level, Western blot quantification (DMSO = 100), Fig S6d, U2OS KO/rescue Dose Response, 5 uM): 86.5% | Dmax ([1]; read-out: BRD2 Dmax, PC3, 24 h dose): 19.5% | remaining activity at 5 µM ([1]; read-out: BRD2 level, Western blot quantification (DMSO = 100), Fig 6b, KO/Rescue, 5 uM): 78.2% | remaining activity at 0.156 µM [1, 4]: 99% | remaining activity at 0.313 µM [1, 4]: 82.2% | remaining activity at 0.625 µM [1, 4]: 66.6% | remaining activity at 1.25 µM [1, 4]: 49.5% | remaining activity at 2.5 µM ([1]; read-out: BRD2 level, Western blot quantification (DMSO = 100), Fig S6e, PC3 KO/rescue Dose Response, 2.5 uM): 30.5% | remaining activity at 5 µM ([1]; read-out: BRD2 level, Western blot quantification (DMSO = 100), Fig S6e, PC3 KO/rescue Dose Response, 5 uM): 13.8% | remaining activity at 10 µM ([1]; read-out: BRD2 level, Western blot quantification (DMSO = 100), Fig S6e, PC3 KO/rescue Dose Response, 10uM): 1.16% | selectivity for BRD3 over BRD4 (DC50) ([2]; 22Rv1): ~ 44 fold | remaining activity at 0.16 µM ([2]; 22Rv1, 24 h, read-out: BRD3 level relative to DMSO (100%), 22Rv1, 0.16µM, 24 h, Fig S6f): 74 ± 4.4% | remaining activity at 0.31 µM ([2]; 22Rv1, 24 h, read-out: BRD3 level relative to DMSO (100%), 22Rv1, 0.31µM, 24 h, Fig S6f): 54 ± 11%
